Data taken from US9957251B2 (Takeda Pharmaceutical Company Limited, priority 2014, dated 2018).

How the values were obtained:
[1] = target: T1, CDK19 (CDC2L6/CycC) (Homo sapiens, UniProt Q9BWU1); experiment: CDK19 inhibitory activity (TR-FRET, Kinase Tracer-236 displacement); assay type: binding; conditions: 1 μM of the test compound; for inhibition at 1 µM: read-out: Percent inhibition of CDK19 activity (%); for Percent inhibition of CDK19 activity (%): 1 µM
T1 construct: purchased Carna Biosciences
T1 sequence (Q9BWU1 whole entry): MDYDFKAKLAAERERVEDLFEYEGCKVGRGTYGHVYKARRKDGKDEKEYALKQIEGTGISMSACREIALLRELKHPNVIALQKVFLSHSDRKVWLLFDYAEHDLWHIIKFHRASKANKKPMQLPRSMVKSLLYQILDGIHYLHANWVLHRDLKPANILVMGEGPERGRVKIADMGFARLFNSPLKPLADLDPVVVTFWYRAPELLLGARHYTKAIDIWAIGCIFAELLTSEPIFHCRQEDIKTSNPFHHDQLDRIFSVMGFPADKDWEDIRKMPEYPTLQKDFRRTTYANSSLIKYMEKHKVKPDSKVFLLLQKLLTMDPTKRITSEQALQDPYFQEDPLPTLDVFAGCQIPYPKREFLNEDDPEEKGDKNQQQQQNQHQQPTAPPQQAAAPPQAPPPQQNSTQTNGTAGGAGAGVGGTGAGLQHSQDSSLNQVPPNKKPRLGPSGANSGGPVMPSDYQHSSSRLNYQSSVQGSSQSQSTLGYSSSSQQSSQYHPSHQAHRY
T1 sequence (P24863 whole entry partner): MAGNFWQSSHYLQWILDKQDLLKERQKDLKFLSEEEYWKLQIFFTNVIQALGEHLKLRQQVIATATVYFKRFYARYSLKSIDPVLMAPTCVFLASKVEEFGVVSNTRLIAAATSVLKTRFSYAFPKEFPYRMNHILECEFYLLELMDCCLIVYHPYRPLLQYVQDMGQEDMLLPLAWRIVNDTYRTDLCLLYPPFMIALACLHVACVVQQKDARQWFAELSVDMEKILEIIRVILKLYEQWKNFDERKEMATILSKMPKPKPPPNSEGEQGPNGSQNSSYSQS
How it was run: (§1)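 Binding assay measuring displacement of Kinase Tracer-236 (60 nM in the added mix) by compound, using Eu-cryptate anti-GST antibody with CDK8/CycC (84 ng/mL) or CDC2L6/CycC (87 ng/mL) solutions. After 1 h at room temperature, TR-FRET read at 615 and 665 nm (excitation 320 nm).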

[2] = target: T2, CDK8/CycC (Homo sapiens, UniProt P49336); experiment: CDK8 inhibitory activity (TR-FRET, Kinase Tracer-236 displacement); assay type: binding; conditions: 1 μM of the test compound; for inhibition at 1 µM: read-out: Percent inhibition of CDK8 activity (%); for Percent inhibition of CDK8 activity (%): 1 µM
T2 construct: purchased Carna Biosciences
T2 sequence (P49336 whole entry): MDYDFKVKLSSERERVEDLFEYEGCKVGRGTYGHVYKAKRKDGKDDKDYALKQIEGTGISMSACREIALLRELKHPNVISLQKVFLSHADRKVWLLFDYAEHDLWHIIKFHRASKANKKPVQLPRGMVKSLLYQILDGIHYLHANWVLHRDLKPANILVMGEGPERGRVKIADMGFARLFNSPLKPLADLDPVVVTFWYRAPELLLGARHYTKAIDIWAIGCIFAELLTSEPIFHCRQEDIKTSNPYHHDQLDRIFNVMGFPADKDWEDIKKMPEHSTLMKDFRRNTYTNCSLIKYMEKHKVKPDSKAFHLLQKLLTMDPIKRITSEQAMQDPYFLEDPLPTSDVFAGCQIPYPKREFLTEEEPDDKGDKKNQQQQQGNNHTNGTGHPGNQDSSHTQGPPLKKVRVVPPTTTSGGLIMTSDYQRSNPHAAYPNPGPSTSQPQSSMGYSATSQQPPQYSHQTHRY
T2 sequence (P24863 whole entry partner): as the sequence (P24863 whole entry partner) above
How it was run: as §1

[3] = test system: human multiple myeloma RPMI8226 cells; experiment: Inhibitory activity against human multiple myeloma RPMI8226 cell growth (CellTiter-Glo); assay type: cell-based; conditions: 1 μM of the test compound, cultured for 8 days; for inhibition at 1 µM: Homo sapiens, RPMI-8226, 192 h, read-out: Percent inhibition of RPMI8226 cell growth (%); for Percent inhibition of RPMI8226 cell growth (%): 1 µM
How it was run: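 RPMI8226 cells (300/well) cultured 1 day at 37 °C, 5% CO2, then given compound at 1 μM for 8 days. ATP luminescence (CellTiter-Glo) read; percent inhibition relative to 0.1% DMSO wells.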

Row | SMILES | inhibition at 1 µM [1] [%] | inhibition at 1 µM [2] [%] | inhibition at 1 µM [3] [%] | Percent inhibition of CDK19 activity (%) [1] [%] | Percent inhibition of CDK8 activity (%) [2] [%] | Percent inhibition of RPMI8226 cell growth (%) [3] [%]
1 | Cn1cc(-c2ccncc2/C=C/C(=O)Nc2ccc3c(c2)CCN(CC(F)(F)F)C3)cn1 [Example 277, (2E)-3-(4-(1-methyl-1H-pyrazol-4-yl)pyridin-3-yl)-N′-(2-(2,2,2-trifluoroethyl)-1,2,3,4-tetrahydroisoquinolin-6-yl)acrylamide] | 101 | 98 | 65 |  |  | 
2 | CC1COCCN1Cc1ccc(NC(=O)/C=C/c2cnccc2-c2cnn(C)c2)cc1 (stereo not drawn) [Example 54, (2E)-N-(4-((3-methylmorpholin-4-yl)methyl)phenyl)-3-(4-(1-methyl-1H-pyrazol-4-yl)pyridin-3-yl)acrylamide] | 95 | 100 | 55 |  |  | 
3 | Cn1cc(-c2ccncc2/C=C/C(=O)Nc2ccc(CN3CCC4(CC3)COC4)cc2)cn1 [Example 84, (2E)-3-(4-(1-methyl-1H-pyrazol-4-yl)pyridin-3-yl)-N-(4-(2-oxa-7-azaspiro[3.5]non-7-ylmethyl)phenyl)acrylamide] | 97 | 97 | 60 |  |  | 
4 | O=C(/C=C/c1cnccc1-c1cnn(C2CC2)c1)Nc1ccc(CN2CC(F)(F)C2)cc1 [Example 377, (2E)-3-(4-(1-Cyclopropyl-1H-pyrazol-4-yl)pyridin-3-yl)-N-(4-((3,3-difluoroazetidin-1-yl)methyl)phenyl)acrylamide hemisuccinate] |  |  |  | 100 | 102 | 66
5 | CC(C)(O)Cc1ccc(NC(=O)/C=C/c2cnccc2-c2cnn(C3CC3)c2)cc1 [Example 143, (2E)-3-(4-(1-cyclopropyl-1H-pyrazol-4-yl)pyridin-3-yl)-N-(4-(2-hydroxy-2-methylpropyl)phenyl)acrylamide] | 103 | 100 | 61 |  |  | 
6 | O=C(/C=C/c1cnccc1-c1cnn(C(F)F)c1)Nc1ccc(CN2CCOCC2)cc1 [Example 98, (2E)-3-(4-(1-(Difluoromethyl)-1H-pyrazol-4-yl)pyridin-3-yl)-N-(4-(morpholin-4-ylmethyl)phenyl)acrylamide] | 100 | 98 | 53 |  |  | 
7 | O=C(/C=C/c1cnccc1-c1cnn2ccccc12)Nc1ccc(CN2CCOCC2)cc1 [Example 101, (2E)-N-(4-(morpholin-4-ylmethyl)phenyl)-3-(4-(pyrazolo[1,5-a]pyridin-3-yl)pyridin-3-yl)acrylamide] | 97 | 98 | 55 |  |  | 
8 | COCCOc1ccc(NC(=O)/C=C/c2cnccc2-c2cnn(C)c2)cc1 [Example 253, (2E)-N-(4-(2-methoxyethoxy)phenyl)-3-(4-(1-methyl-1H-pyrazol-4-yl)pyridin-3-yl)acrylamide] | 97 | 98 | 62 |  |  | 
9 | Cn1cc(-c2ccncc2/C=C/C(=O)Nc2cc(F)c(CN3CCOCC3)cc2F)cn1 [Example 237, (2E)-N-(2,5-difluoro-4-(morpholin-4-ylmethyl)phenyl)-3-(4-(1-methyl-1H-pyrazol-4-yl)pyridin-3-yl)acrylamide] | 91 | 94 | 66 |  |  | 
10 | CCN1CCc2ccc(NC(=O)/C=C/c3cnccc3-c3cnn(C)c3)cc2C1 [Example 257, (2E)-N-(2-ethyl-1,2,3,4-tetrahydroisoquinolin-7-yl)-3-(4-(1-methyl-1H-pyrazol-4-yl)pyridin-3-yl)acrylamide] | 95 | 99 | 56 |  |  | 
11 | O=C(/C=C/c1cnccc1-c1cnn(CC2CC2)c1)Nc1ccc(CCN2CCOCC2)cc1 [Example 108, (2E)-3-(4-(1-(cyclopropylmethyl)-1H-pyrazol-4-yl)pyridin-3-yl)-N-(4-(2-(morpholin-4-yl)ethyl)phenyl)acrylamide] | 97 | 94 | 58 |  |  | 
12 | O=C(/C=C/c1cnccc1-c1cnn(C2CC2)c1)Nc1ccc2c(c1)CN(CC(F)(F)C(F)(F)F)CC2 [Example 300, (2E)-3-(4-(1-cyclopropyl-1H-pyrazol-4-yl)pyridin-3-yl)-N-(2-(2,2,3,3,3-pentafluoropropyl)-1,2,3,4-tetrahydroisoquinolin-7-yl)acrylamide] | 94 | 97 | 57 |  |  | 
13 | COC1CN(Cc2ccc(NC(=O)/C=C/c3cnccc3-c3cnn(C4CC4)c3)cc2)C1 [Example 321, (2E)-3-(4-(1-cyclopropyl-1H-pyrazol-4-yl)pyridin-3-yl)-N-(4-((3-methoxyazetidin-1-yl)methyl)phenyl)acrylamide] | 99 | 101 | 59 |  |  | 
14 | O=C(/C=C/c1cnccc1-c1cnn(C2CC2)c1)Nc1ccc(CN2CC(F)(F)C2)cc1 [Example 376, (2E)-3-(4-(1-Cyclopropyl-1H-pyrazol-4-yl)pyridin-3-yl)-N-(4-((3,3-difluoroazetidin-1-yl)methyl)phenyl)acrylamide hemifumarate] |  |  |  | 100 | 99 | 70
15 | Cn1cc(-c2ccncc2/C=C/C(=O)Nc2ccc3ncsc3c2)cn1 [Example 169, (2E)-N-(1,3-benzothiazol-6-yl)-3-(4-(1-methyl-1H-pyrazol-4-yl)pyridin-3-yl)acrylamide] | 90 | 94 | 53 |  |  | 
16 | Cn1cc2cc(-c3ccncc3/C=C/C(=O)Nc3ccc(CN4CCOCC4)cc3)ccc2n1 [Example 261, (2E)-3-(4-(2-methyl-2H-indazol-5-yl)pyridin-3-yl)-N-(4-(morpholin-4-ylmethyl)phenyl)acrylamide] | 93 | 97 | 52 |  |  | 
17 | Cn1cc(-c2ccncc2/C=C/C(=O)Nc2ccc(CN3CCOC(C)(C)C3)cc2)cn1 [Example 37, (2E)-N-(4-((2,2-Dimethylmorpholin-4-yl)methyl)phenyl)-3-(4-(1-methyl-1H-pyrazol-4-yl)pyridin-3-yl)acrylamide] | 101 | 97 | 61 |  |  | 
18 | Cn1cc(-c2ccncc2/C=C/C(=O)Nc2ccc(CN3CCCC3CO)cc2)cn1 (stereo not drawn) [Example 76, (2E)-N-(4-((2-(hydroxymethyl)pyrrolidin-1-yl)methyl)phenyl)-3-(4-(1-methyl-1H-pyrazol-4-yl)pyridin-3-yl)acrylamide] | 93 | 104 | 52 |  |  | 
19 | O=C(/C=C/c1cncc(F)c1-c1cnn(C2CC2)c1)Nc1ccc(CN2CC3CC(C2)O3)cc1 [Example 336, (2E)-3-(4-(1-Cyclopropyl-1H-pyrazol-4-yl)-5-fluoropyridin-3-yl)-N-(4-(6-oxa-3-azabicyclo[3.1.1]hept-3-ylmethyl)phenyl)acrylamide] | 101 | 102 | 59 |  |  | 
20 | COc1ccc(-c2ccncc2/C=C/C(=O)Nc2ccc(CN3CCOCC3)cc2)s1 [Example 220, (2E)-3-(4-(5-methoxy-2-thienyl)pyridin-3-yl)-N-(4-(morpholin-4-ylmethyl)phenyl)acrylamide] | 96 | 93 | 58 |  |  | 
21 | O=C(/C=C/c1cncc(F)c1-c1cnn(C2CC2)c1)Nc1ccc2c(c1)OCCO2 [Example 331, (2E)-3-(4-(1-cyclopropyl-1H-pyrazol-4-yl)-5-fluoropyridin-3-yl)-N-(2,3-dihydro-1,4-benzodioxin-6-yl)acrylamide] | 98 | 103 | 65 |  |  | 
22 | Cn1cc(-c2ccncc2/C=C/C(=O)Nc2ccc(CN3CC4CCC(C3)O4)cc2)cn1 [Example 50, (2E)-3-(4-(1-methyl-1H-pyrazol-4-yl)pyridin-3-yl)-N-(4-(8-oxa-3-azabicyclo[3.2.1]oct-3-ylmethyl)phenyl)acrylamide] | 97 | 96 | 61 |  |  | 
23 | Cn1ccc2cc(NC(=O)/C=C/c3cnccc3-c3cnn(C4CC4)c3)ccc21 [Example 251, (2E)-3-(4-(1-Cyclopropyl-1H-pyrazol-4-yl)pyridin-3-yl)-N-(1-methyl-1H-indol-5-yl)acrylamide] | 97 | 100 | 61 |  |  | 
24 | O=C(/C=C/c1cnccc1-c1cnn(C2CC2)c1)Nc1ccc(COCC(F)(F)F)cc1F [Example 330, (2E)-3-(4-(1-Cyclopropyl-1H-pyrazol-4-yl)pyridin-3-yl)-N-(2-fluoro-4-((2,2,2-trifluoroethoxy)methyl)phenyl)acrylamide] | 96 | 101 | 53 |  |  | 
25 | CCn1cc(-c2ccncc2/C=C/C(=O)Nc2ccc(CN3CCOCC3)cc2)cn1 [Example 92, (2E)-3-(4-(1-Ethyl-1H-pyrazol-4-yl)pyridin-3-yl)-N-(4-(morpholin-4-ylmethyl)phenyl)acrylamide] | 100 | 96 | 63 |  |  | 
26 | O=C(/C=C/c1cnccc1-c1cnn(C2CC2)c1)Nc1ccc2c(c1)CCN(CC(F)(F)F)C2 [Example 316, (2E)-3-(4-(1-Cyclopropyl-1H-pyrazol-4-yl)pyridin-3-yl)-N-(2-(2,2,2-trifluoroethyl)-1,2,3,4-tetrahydroisoquinolin-6-yl)acrylamide] | 98 | 103 | 49 |  |  | 
